# In patent US11401264B2, “Heterocyclic compound” (Orizuru Therapeutics, Inc., priority 2018, dated 2022):
# System: cardiomyocytes from double knock-in human iPS cell lines (mCherry at TNNI3 locus)
# Assay: Experimental Example 1: mCherry (TNNI3 reporter) immunostaining measured by high contents screening
# Format: cell-based
# Set-up: key to average fluorescent intensity (at 30 μM): —: The symbol in Table 2 means that the average fluorescent intensity cannot be evaluated due to cell decrease
# Conditions: read on 8th day, Alexa 647 anti-mCherry, control well 797; for average fluorescent intensity (at 1 μM): test compound 1 μM added on 3rd and 6th culture days; for average fluorescent intensity (at 30 μM): test compound 30 μM added on 3rd and 6th culture days
# Method: For detection of cardiomyocyte maturation, double knock-in human iPS cell lines, in which reporter protein sequences, EmGFP (Sequence Number 1) and mCherry (Sequence Number 2) were inserted into gene loci for TNNI1 and TNNI3, respectively, were prepared (the human iPS cells were prepared from episomal vector (loaded gene; OCT3/4, KLF4, SOX2, L-MYC, LIN28, mouse p53DD) using PBMC (LP_167, Sample ID: 20130318) purchased from CTL (reference literature; Okita K, et al. Stem Cells. 2012 Nov. 29. doi: 10.1002/stem.1293)).
# The maintenance culture of the above-mentioned reporter iPS cell lines was carried out by a conventional method (Okita K, et al. Stem Cells. 2012 Nov. 29. doi: 10.1002/stem.1293).
# For differentiation induction into cardiomyocytes, the reporter iPS cell lines were treated with 0.5×TrypLE select (Life Technologies, diluted in 1/2 with 0.5 mM EDTA/PBS) for 4 to 5 minutes, and the cells were exfoliated using a cell scraper (IWAKI), and then dissociated into the single cell by pipetting. The medium was removed by centrifugation (1,000 rpm, 5 min), and the obtained cells were seeded on a bioreactor (ABLE) by 1×10^7 cells per 30 mL of the bioreactor, and then cultured in a medium prepared by adding 1% L-glutamine, transferrin 150 μg/mL, ascorbic acid 50 μg/mL (Sigma), monothioglycerol 4×10^−4 M, 10 μM Rock inhibitor (Y-27632), 2 ng/mL BMP4 (R&D) and 0.5% Matrigel (Growth Factor Reduced) to a medium after removal of solution C from StemFit AK02 (AJINOMOTO AK02, 400 mL of solution A and 100 mL of B solution, total 500 mL), at 37° C., under 5% oxygen condition (55 rpm, stirred suspension culture method) to form embryoid bodies (0 day).
# Next day (1st day), 9 μL (final concentration 3 ng/mL) of 10 μg/mL activin A, 15 μL (final concentration 5 ng/mL) of 10 μg/mL bFGF and […] (final concentration 10 ng/mL) of 10 μg/mL BMP4 were added to the bioreactor, and the cells were cultured at 37° C. for additional 2 days, under 5% oxygen condition.
# Then (3rd day), the obtained embryoid bodies were collected in a 50 mL centrifuge tube, and then subjected to centrifugation (200 g, 1 min). The medium was removed, and the embryoid bodies were cultured in a medium prepared by adding 1% L-glutamine, transferrin 150 μg/mL, ascorbic acid 50 μg/mL (Sigma), monothioglycerol 4×10^−4 M, 10 ng/mL VEGF, 1 μM IWP-3, 0.6 μM dorsomorphin and 5.4 μM SB431542 to a medium after removal of solution C from StemFit AK02 (AJINOMOTO AK02, 400 mL of solution A and 100 mL of B solution, total 500 mL), at 37° C. for 3 days, under 5% oxygen condition (55 rpm, stirred suspension culture method).
# Then (6th day), the bioreactor was left to stand to precipitate the embryoid bodies, and 80 to 90% of the medium was removed. A medium prepared by adding 1% L-glutamine, transferrin 150 μg/mL, ascorbic acid 50 μg/mL (Sigma), monothioglycerol […] and 5 ng/mL VEGF to a medium after removal of solution C from StemFit AK02 (AJINOMOTO AK02, 400 mL of solution A and 100 mL of B solution, total 500 mL) was added to the bioreactor so that the total volume became 30 mL, and the embryoid bodies were cultured for 8 days, at 37° C., under 5% oxygen condition (55 rpm, stirred suspension culture method). During the culture, the medium was replaced with a medium under the same conditions every 2 to 3 days.
# 14th Day after the start of the differentiation induction, the embryoid bodies were treated with 2 mg/mL collagenase type I (Sigma) for 2 hr, and then with 0.25% trypsin/EDTA (Invitrogen) for 10 min. 50% FBS/IMDM (Thermo Fisher Science) was added thereto, and the embryoid bodies were dissociated into the single cell by pipetting, and then subjected to centrifugation (1,000 rpm, 5 minutes). […]
Compound,average fluorescent intensity (at 1 μM),average fluorescent intensity (at 30 μM)
"Cc1cccc(NC(=O)COc2ccc(-c3nc4cc(N5Cc6cc(N7CCCCC7)ccc6C5=O)ccc4[nH]3)cc2)c1 [Example 23, N-(3-methylphenyl)-2-(4-(5-(1-oxo-5-(piperidin-1-yl)-1,3-dihydro-2H-isoindol-2-yl)-1H-benzimidazol-2-yl)phenoxy)acetamide]",1386,
"O=C(COc1ccc(-c2nc3cc(N4Cc5cc(N6CCCCC6)ccc5C4=O)ccc3[nH]2)cc1)NCCCc1ccccc1 [Example 24, 2-(4-(5-(1-oxo-5-(piperidin-1-yl)-1,3-dihydro-2H-isoindol-2-yl)-1H-benzimidazol-2-yl)phenoxy)-N-(3-phenylpropyl)acetamide]",1241,—
"O=C(COc1ccc(-c2nc3cc(N4Cc5cc(N6CCCCC6)ccc5C4=O)ccc3[nH]2)cc1)NC1CC1 [Example 25, N-cyclopropyl-2-(4-(5-(1-oxo-5-(piperidin-1-yl)-1,3-dihydro-2H-isoindol-2-yl)-1H-benzimidazol-2-yl)phenoxy)acetamide]",1260,900
"CC(C)CNC(=O)COc1ccc(-c2nc3cc(N4Cc5cc(N6CCCCC6)ccc5C4=O)ccc3[nH]2)cc1 [Example 26, N-isobutyl-2-(4-(5-(1-oxo-5-(piperidin-1-yl)-1,3-dihydro-2H-isoindol-2-yl)-1H-benzimidazol-2-yl)phenoxy)acetamide]",1809,—
"O=C(COc1ccc(-c2nc3cc(N4Cc5cc(N6CCCCC6)ccc5C4=O)ccc3[nH]2)cc1)NCC1CC1 [Example 27, N-(cyclopropylmethyl)-2-(4-(5-(1-oxo-5-(piperidin-1-yl)-1,3-dihydro-2H-isoindol-2-yl)-1H-benzimidazol-2-yl)phenoxy)acetamide]",1821,—
"CCCNC(=O)COc1ccc(-c2nc3cc(N4Cc5cc(N6CCCCC6)ccc5C4=O)ccc3[nH]2)cc1 [Example 28, 2-(4-(5-(1-oxo-5-(piperidin-1-yl)-1,3-dihydro-2H-isoindol-2-yl)-1H-benzimidazol-2-yl)phenoxy)-N-propylacetamide]",1540,—
"CC(C)NC(=O)COc1ccc(-c2nc3cc(N4Cc5cc(N6CCOCC6)ccc5C4=O)ccc3[nH]2)cc1 [Example 29, N-isopropyl-2-(4-(5-(5-(morpholin-4-yl)-1-oxo-1,3-dihydro-2H-isoindol-2-yl)-1H-benzimidazol-2-yl)phenoxy)acetamide]",1120,910
"O=C(COc1ccc(-c2nc3cc(N4Cc5cc(N6CCOCC6)ccc5C4=O)ccc3[nH]2)cc1)NCC1CCOCC1 [Example 30, 2-(4-(5-(5-(morpholin-4-yl)-1-oxo-1,3-dihydro-2H-isoindol-2-yl)-1H-benzimidazol-2-yl)phenoxy)-N-(tetrahydro-2H-pyran-4-ylmethyl)acetamide]",1005,876
"O=C(COc1ccc(-c2nc3cc(N4Cc5cc(N6CCOCC6)ccc5C4=O)ccc3[nH]2)cc1)NC1CCOCC1 [Example 31, 2-(4-(5-(5-(morpholin-4-yl)-1-oxo-1,3-dihydro-2H-isoindol-2-yl)-1H-benzimidazol-2-yl)phenoxy)-N-(tetrahydro-2H-pyran-4-yl)acetamide]",736,888
"O=C(COc1ccc(-c2nc3cc(N4Cc5cc(N6CCOCC6)ccc5C4=O)ccc3[nH]2)cc1)N1CCOCC1 [Example 32, 5-(morpholin-4-yl)-2-(2-(4-(2-(morpholin-4-yl)-2-oxoethoxy)phenyl)-1H-benzimidazol-5-yl)isoindolin-1-one]",1312,1937
"O=C(COc1ccc(-c2nc3cc(N4Cc5cc(N6CCOCC6)ccc5C4=O)ccc3[nH]2)cc1)N1CCCCC1 [Example 33, 5-(morpholin-4-yl)-2-(2-(4-(2-oxo-2-(piperidin-1-yl)ethoxy)phenyl)-1H-benzimidazol-5-yl)isoindolin-1-one]",1568,3010
"O=C(COc1ccc(-c2nc3cc(N4Cc5cc(N6CCOCC6)ccc5C4=O)ccc3[nH]2)cc1)N1CCCC1 [Example 34, 5-(morpholin-4-yl)-2-(2-(4-(2-oxo-2-(pyrrolidin-1-yl)ethoxy)phenyl)-1H-benzimidazol-5-yl)isoindolin-1-one]",1540,—
"O=C(COc1ccc(-c2nc3cc(N4Cc5cc(N6CCOCC6)ccc5C4=O)ccc3[nH]2)cc1)Nc1ccncc1 [Example 35, 2-(4-(5-(5-(morpholin-4-yl)-1-oxo-1,3-dihydro-2H-isoindol-2-yl)-1H-benzimidazol-2-yl)phenoxy)-N-(pyridin-4-yl)acetamide]",1536,1204
"O=C(COc1ccc(-c2nc3cc(N4Cc5cc(N6CCOCC6)ccc5C4=O)ccc3[nH]2)cc1)NCc1ccccc1 [Example 36, N-benzyl-2-(4-(5-(5-(morpholin-4-yl)-1-oxo-1,3-dihydro-2H-isoindol-2-yl)-1H-benzimidazol-2-yl)phenoxy)acetamide]",1006,1743
"O=C(COc1ccc(-c2nc3cc(N4Cc5cc(N6CCOCC6)ccc5C4=O)ccc3[nH]2)cc1)Nc1ccccc1 [Example 37, 2-(4-(5-(5-(rnorpholin-4-yl)-1-oxo-1,3-dihydro-2H-isoindol-2-yl)-1H-benzimidazol-2-yl)phenoxy)-N-phenylacetamide]",1696,1290
"CN(C)C(=O)COc1ccc(-c2nc3cc(N4Cc5cc(N6CCOCC6)ccc5C4=O)ccc3[nH]2)cc1 [Example 38, N,N-dimethyl-2-(4-(5-(5-(morpholin-4-yl)-1-oxo-1,3-dihydro-2H-isoindol-2-yl)-1H-benzimidazol-2-yl)phenoxy)acetamide]",1633,—
"O=C1c2ccc(N3CCCCC3)cc2CN1c1ccc2[nH]c(C3CCNCC3)nc2c1 [Example 39, 5-(piperidin-1-yl)-2-(2-(piperidin-4-yl)-1H-benzimidazol-5-yl)isoindolin-1-one]",1042,1026
"O=C1c2ccc(N3CCCCC3)cc2CN1c1ccc2[nH]c(-c3ccno3)nc2c1 [Example 40, 2-(2-(1,2-oxazol-5-yl)-1H-benzimidazol-5-yl)-5-(piperidin-1-yl)isoindolin-1-one]",1089,1327
"O=C1c2ccc(N3CCCCC3)cc2CN1c1ccc2[nH]c(-c3cccs3)nc2c1 [Example 41, 5-(piperidin-1-yl)-2-(2-(2-thienyl)-1H-benzimidazol-5-yl)isoindolin-1-one]",1107,1571
